This experiment addresses human MDM2 protein (amino acids 2-188) (Homo sapiens (Human), UniProt Q00987). In words: TR-FRET assay, p53-MDM2 Assay 2 (modified). As to conditions: TR-FRET; 0.1 nM MDM2, 0.1 nM Europium labeled streptavidin, Tecan genios Pro reader; read-out: IC50 p53-MDM2 Assay 2. The format is binding. As to the method: The inhibition of p53-MDM2 and p53-MDM4 interactions is measured by time resolved fluorescence energy transfer (TR-FRET). Fluorescence energy transfer (or Foerster resonance energy transfer) describes an energy transfer between donor and acceptor fluorescent molecules. For this assay, human MDM2 protein (amino acids 2-188) and human MDM4 protein (amino acids 2-185), tagged with a C-terminal biotin moiety, are used in combination with a Europium labeled streptavidin (Perkin Elmer, Inc., Waltham, Mass., USA) serving as the donor fluorophore. The p53 derived, Cy5 labeled peptide Cy5-[…] (p53 aa18-26) is the energy acceptor. Upon excitation of the donor molecule at 340 nm, binding interaction between MDM2 or MDM4 and the p53 peptide induces energy transfer and enhanced response at the acceptor emission wavelength at 665 nm. […] The ratiometric FRET assay readout is calculated from the raw data of the two distinct fluorescence signals measured in time resolved mode (fluorescence 665 nm/fluorescence 620 nm×1000).
After addition of 1.25 nM MDM2-biotinylated or 2.5 nM MDM4-biotinylated (internal preparations), and 0.625 nM Europium labeled streptavidin (Perkin Elmer), the solution is pre-incubated for 15 minutes at room temperature, then 10 nM Cy5-p53 peptide (internal preparation) is added before an incubation at room temperature for 15 minutes prior to reading the plate. For measurement of samples, a Victor II microplate reader (Perkin Elmer) is used with the following settings: Excitation 340 nm, Emission Donor 620 nm and Emission Acceptor 665 nm. IC50 values are calculated by curve fitting using XLfit. If not specified, reagents are purchased from Sigma-Aldrich Chemie GmBH, Buchs, Switzerland.

Chain of human MDM2 protein (amino acids 2-188) (Q00987 2-188): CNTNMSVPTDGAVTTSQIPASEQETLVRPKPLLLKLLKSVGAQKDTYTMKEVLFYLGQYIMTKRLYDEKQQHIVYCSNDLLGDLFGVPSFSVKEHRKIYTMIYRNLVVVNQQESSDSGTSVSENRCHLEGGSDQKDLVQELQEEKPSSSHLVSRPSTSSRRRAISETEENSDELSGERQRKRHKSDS

As a reminder, the IC50 is the concentration that gives 50% inhibition. As to `COc1nc(N(C)C)ncc1-c1cc2c(n1C(C)C)[C@H](c1ccc(C#N)cc1)N(C1CCOCC1)C2=O` [Example 190, 4-[(S)-2-(2-Dimethylamino-4-methoxy-pyrimidin-5-yl)-1-isopropyl-4-oxo-5-(tetrahydro-pyran-4-yl)-1,4,5,6-tetrahydro-pyrrolo[3,4-b]pyrrol-6-yl]-benzonitrile], the IC50 turned out to be 0.631 nM.

`COc1ncc(-c2cc3c(n2C(C)C)C(c2ccc(Cl)cc2)N(c2cc(Cl)cn(C)c2=O)C3=O)c(OC)n1` (centres unmarked) [Example 70, 5-(5-Chloro-1-methyl-2-oxo-1,2-dihydro-pyridin-3-yl)-6-(4-chloro-phenyl)-2-(2,4-dimethoxy-pyrimidin-5-yl)-1-isopropyl-5,6-dihydro-1H-pyrrolo[3,4-b]pyrrol-4-one]: the IC50 was found to be 0.235 nM.

On to `COc1ncc(-c2cc3c(n2C(C)C)C(c2ccc(C#N)c(F)c2)N(c2cc(Cl)c(=O)n(C)c2)C3=O)c(OC)n1` (centres unmarked) [Example 195, 4-[5-(5-Chloro-1-methyl-6-oxo-1,6-dihydro-pyridin-3-yl)-2-(2,4-dimethoxy-pyrimidin-5-yl)-1-isopropyl-4-oxo-1,4,5,6-tetrahydro-pyrrolo[3,4-b]pyrrol-6-yl]-2-fluoro-benzonitrile], for which the IC50 turned out to be 0.252 nM.

With `COc1ncc(-c2cc3c(n2C(C)C)C(c2ccc(Cl)cc2)N(c2cc(C)nn2C)C3=O)c(OC)n1` (centres unmarked) [Example 176, 6-(4-Chloro-phenyl)-2-(2,4-dimethoxy-pyrimidin-5-yl)-5-(2,5-dimethyl-2H-pyrazol-3-yl)-1-isopropyl-5,6-dihydro-1H-pyrrolo[3,4-b]pyrrol-4-one], the IC50 stood at 0.87 nM.

As to `COc1ncc(-c2cc3c(n2C(C)C)C(c2ccc(C#N)cc2)N(c2cc(Cl)c(=O)n(C)c2)C3=O)c(OC)n1` (centres unmarked) [Example 153, 4-[5-(5-Chloro-1-methyl-6-oxo-1,6-dihydro-pyridin-3-yl)-2-(2,4-dimethoxy-pyrimidin-5-yl)-1-isopropyl-4-oxo-1,4,5,6-tetrahydro-pyrrolo[3,4-b]pyrrol-6-yl]-benzonitrile], the IC50 is 0.422 nM.

With `COc1ncc(-c2cc3c(n2C(C)C)[C@@H](c2ccc(Cl)cc2C)N(c2cc(Cl)c(=O)n(C)c2)C3=O)c(OC)n1` [Example 161, (R)-5-(5-Chloro-1-methyl-6-oxo-1,6-dihydro-pyridin-3-yl)-6-(4-chloro-2-methyl-phenyl)-2-(2,4-dimethoxy-pyrimidin-5-yl)-1-isopropyl-5,6-dihydro-1H-pyrrolo[3,4-b]pyrrol-4-one], the IC50 came out at 308 nM.

As to `COc1ccc(C(=O)O)cc1-c1cc2c(n1C(C)C)[C@H](c1ccc(Cl)cc1)N(c1cc(Cl)ccc1C)C2=O` [Example 89, 3-[(S)-5-(5-Chloro-2-methyl-phenyl)-6-(4-chloro-phenyl)-1-isopropyl-4-oxo-1,4,5,6-tetrahydro-pyrrolo[3,4-b]pyrrol-2-yl]-4-methoxy-benzoic acid], the IC50 stood at 0.08 nM.

On to `COc1nc(N(C)C)ncc1-c1cc2c(n1C(C)C)C(c1ccc(C#N)c(F)c1)N(c1cc(Cl)c[nH]c1=O)C2=O` (centres unmarked) [Example 201, 4-[5-(5-Chloro-2-oxo-1,2-dihydro-pyridin-3-yl)-2-(2-dimethylamino-4-methoxy-pyrimidin-5-yl)-1-isopropyl-4-oxo-1,4,5,6-tetrahydro-pyrrolo[3,4-b]pyrrol-6-yl]-2-fluoro-benzonitrile], for which the IC50 worked out at 0.25 nM.

As to `COc1ccc(S(C)(=O)=O)cc1-c1cc2c(n1C(C)C)C(c1ccc(Cl)cc1)N(c1cc(Cl)c(=O)n(C)c1)C2=O` (centres unmarked) [Example 119, 5-(5-Chloro-1-methyl-6-oxo-1,6-dihydro-pyridin-3-yl)-6-(4-chloro-phenyl)-1-isopropyl-2-(5-methanesulfonyl-2-methoxy-phenyl)-5,6-dihydro-1H-pyrrolo[3,4-b]pyrrol-4-one], the IC50 is 0.168 nM.

For `COC[C@@H](C)n1c(-c2cnc(OC)nc2OC)cc2c1C(c1ccc(Cl)cc1)N(c1cc(Cl)c(=O)n(C)c1)C2=O` (some centres unmarked) [Example 225], the concentration for half-maximal inhibition (IC50) was determined as 0.277 nM.

In the case of `COc1cn(C)c(=O)cc1-c1cc2c(n1C(C)C)C(c1ccc(Cl)cc1)N(c1cc(Cl)ccc1C)C2=O` (centres unmarked) [Example 149, 5-(5-Chloro-2-methyl-phenyl)-6-(4-chloro-phenyl)-1-isopropyl-2-(5-methoxy-1-methyl-2-oxo-1,2-dihydro-pyridin-4-yl)-5,6-dihydro-1H-pyrrolo[3,4-b]pyrrol-4-one], the 50% inhibitory concentration (IC50) was found to be 0.11 nM.

Take `COc1nc(N(C)C)ncc1-c1cc2c(n1C(C)C)C(c1ccc(C#N)cc1)N(c1cc(Cl)ccc1C)C2=O` (centres unmarked) [Example 95, 4-[5-(5-Chloro-2-methyl-phenyl)-2-(2-dimethylamino-4-methoxy-pyrimidin-5-yl)-1-isopropyl-4-oxo-1,4,5,6-tetrahydro-pyrrolo[3,4-b]pyrrol-6-yl]-benzonitrile]: the IC50 is 0.194 nM.

With `COc1nc(N(C)C)ncc1-c1cc2c(n1C(C)C)C(c1ccc(Cl)c(F)c1)N(c1cc(Cl)cn(C)c1=O)C2=O` (centres unmarked) [Example 197, 6-(4-Chloro-3-fluoro-phenyl)-5-(5-chloro-1-methyl-2-oxo-1,2-dihydro-pyridin-3-yl)-2-(2-dimethylamino-4-methoxy-pyrimidin-5-yl)-1-isopropyl-5,6-dihydro-1H-pyrrolo[3,4-b]pyrrol-4-one], the half-maximal inhibitory concentration (IC50) came to 0.356 nM.

Turning to `COc1nc(N)ncc1-c1cc2c(n1C(C)C)C(c1ccc(Cl)cc1)N(c1c(F)c(C)nn1C)C2=O` (centres unmarked) [Example 210, 2-(2-Amino-4-methoxy-pyrimidin-5-yl)-6-(4-chloro-phenyl)-5-(4-fluoro-2,5-dimethyl-2H-pyrazol-3-yl)-1-isopropyl-5,6-dihydro-1H-pyrrolo[3,4-b]pyrrol-4-one], the 50% inhibitory concentration (IC50) was 3.9 nM.

In the case of `COC[C@@H](C)n1c(-c2cnc(N)nc2OC)cc2c1[C@H](c1ccc(Cl)cc1)N(c1ccc(F)c(Cl)c1)C2=O` [Example 229], the IC50 came to 0.078 nM.

On to `COc1cccnc1-c1cc2c(n1C(C)C)C(c1ccc(Cl)cc1)N(c1cc(Cl)ccc1C)C2=O` (centres unmarked) [Example 113, 5-(5-Chloro-2-methyl-phenyl)-6-(4-chloro-phenyl)-1-isopropyl-2-(3-methoxy-pyridin-2-yl)-5,6-dihydro-1H-pyrrolo[3,4-b]pyrrol-4-one], for which the 50% inhibitory concentration (IC50) worked out at 0.216 nM.

Take `CNC(=O)Cc1ccc(OC)c(-c2cc3c(n2C(C)C)C(c2ccc(Cl)cc2)N(c2cc(Cl)ccc2C)C3=O)c1` (centres unmarked) [Example 81, 2-{3-[5-(5-Chloro-2-methyl-phenyl)-6-(4-chloro-phenyl)-1-isopropyl-4-oxo-1,4,5,6-tetrahydro-pyrrolo[3,4-b]pyrrol-2-yl]-4-methoxy-phenyl}-N-methyl-acetamide]: the 50% inhibitory concentration (IC50) was determined as 0.148 nM.

`COc1ncc(-c2cc3c(n2C(C)C)C(c2ccc(Cl)cn2)N(c2ccc(F)c(Cl)c2)C3=O)c(OC)n1` (centres unmarked) [Example 214, 5-(3-Chloro-4-fluoro-phenyl)-6-(5-chloro-pyridin-2-yl)-2-(2,4-dimethoxy-pyrimidin-5-yl)-1-isopropyl-5,6-dihydro-1H-pyrrolo[3,4-b]pyrrol-4-one]: the concentration for half-maximal inhibition (IC50) is 1.89 nM.

Turning to `COc1ccc(C#N)cc1-c1cc2c(n1C(C)C)C(c1ccc(Cl)cc1)N(c1cc(Cl)ccc1C)C2=O` (centres unmarked) [Example 17, 3-[5-(5-Chloro-2-methyl-phenyl)-6-(4-chloro-phenyl)-1-isopropyl-4-oxo-1,4,5,6-tetrahydro-pyrrolo[3,4-b]pyrrol-2-yl]-4-methoxy-benzonitrile], the half-inhibitory concentration (IC50) was 0.281 nM.

Take `CNc1ncc(-c2cc3c(n2C(C)C)C(c2ccc(C#N)cc2)N(c2cc(Cl)c[nH]c2=O)C3=O)c(OC)n1` (centres unmarked) [Example 128, 4-[5-(5-Chloro-2-oxo-1,2-dihydro-pyridin-3-yl)-1-isopropyl-2-(4-methoxy-2-methylamino-pyrimidin-5-yl)-4-oxo-1,4,5,6-tetrahydro-pyrrolo[3,4-b]pyrrol-6-yl]-benzonitrile]: the IC50 was 0.527 nM.

With `COc1ccc(S(C)(=O)=O)cc1-c1cc2c(n1C(C)C)C(c1ccc(Cl)cc1)N(c1cc(Cl)ccc1C)C2=O` (centres unmarked) [Example 114, 5-(5-Chloro-2-methyl-phenyl)-6-(4-chloro-phenyl)-1-isopropyl-2-(5-methanesulfonyl-2-methoxy-phenyl)-5,6-dihydro-1H-pyrrolo[3,4-b]pyrrol-4-one], the IC50 is 0.184 nM.

On to `COC[C@@H](C)n1c(-c2cnc(N)nc2OC)cc2c1[C@@H](c1ccc(Cl)cc1)N(c1ccc(F)c(Cl)c1)C2=O` [Example 230, (R)-2-(2-Amino-4-methoxy-pyrimidin-5-yl)-5-(3-chloro-4-fluoro-phenyl)-6-(4-chloro-phenyl)-1-((R)-2-methoxy-1-methyl-ethyl)-5,6-dihydro-1H-pyrrolo[3,4-b]pyrrol-4-one], for which the IC50 is 281 nM.

Consider `COc1ncc(-c2cc3c(n2C(C)C)C(c2ccc(Cl)cc2)N(C2CCOCC2)C3=O)c(OC)n1` (centres unmarked) [Example 76, 6-(4-Chloro-phenyl)-2-(2,4-dimethoxy-pyrimidin-5-yl)-1-isopropyl-5-(tetrahydro-pyran-4-yl)-5,6-dihydro-1H-pyrrolo[3,4-b]pyrrol-4-one], for which the concentration for half-maximal inhibition (IC50) was found to be 1.64 nM.

The record behind these values is patent US9365576B2, “Pyrrolopyrrolidinone compounds” (Novartis AG, priority 2012, dated 2016).
